# Results as given in patent US20230233533A1, “COMPOSITIONS, METHODS OF TREATING AND PREVENTING FUNGAL INFECTIONS, AND METHODS OF INHIBITING PRP8 INTEIN EXPRESSION” (Health Research, Inc., priority 2020, published 2023).
# Values joined by “and” are separate entries in the source; they are usually repeats but may differ in a detail not shown here. Equal entries are not always repeated. Where two headings read alike, the source gives them in different places.
# Tests used:
# [1] = molecular target: T1, Prp8 intein (Cryptococcus gattii, UniProt E6R027); assay: Split GFP-Prp8i intein splicing assay; type: biochemical; details: for IC50: split GFP-Prp8 intein splicing
# Protocol: Cloning, expression and purfication—The split GFP-Prp8i was constructed using a mega-PCR mutagenesis approach. […] After digestion with Dpn I restriction enzyme, the PCR product was transformed into DH5α Escherichia coli. Clones were verified by plasmid DNA sequencing. The expression, refolding and purification of the GFP-Prp8i fusion protein were carried out as described previously.
# […] Then 100 μl 2×TCEP was added to a final concentration of 20 μM. The reactions were incubated at 25° C. overnight. […] Two readings were taken, one prior to addition of TCEP (I0) and one after incubation overnight with TCEP (If). Fluorescence/luminescence differences (ΔFluorescence or ΔLuminescence) were defined as If−I0 for each well. […] DMF control served as 100% splicing activity.
# Split GFP-Prp8 and CJGFP-Prp8 intein splicing assays—Using black and clear bottom 96-well plates, the DPNB-treated, -refolded and -concentrated GFP-Prp8 or CfGFP-Prp8 fusion protein (0.5 μM) was incubated with compounds or Dimethylsulfoxide (DMSO) solvent control for 30 min at 25° C. in a 100 μl intein splicing buffer (20 mM Bis-tris propane, 0.5 M NaCl, 0.5 M arginine, 1 mM EDTA, and 0.05% CHAPS). Then 100 μl 2×TCEP was added to a final concentration of 20 μM. The reactions were incubated at 25° C. overnight. […] Two readings were taken, one prior to addition of TCEP (I0) and one after incubation overnight with TCEP (If). Fluorescence/luminescence differences (ΔFluorescence or ΔLuminescence) were defined as If−I0 for each well. […] DMSO control served as 100% splicing activity.
# [2] = system: human lung carcinoma cell line A549; assay: in vitro; type: cell-based; details: 48 h, MTT
# How it was run: (§1)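 A549 cells (5×10^3 per well) were exposed to compounds at 37 °C for 48 h, and viability was read by MTT assay; N=3.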
# [3] = molecular target: T1, Prp8 intein; assay: Split Renilla luciferase RLuc-Prp8 intein splicing assay; type: biochemical; details: split Renilla luciferase RLuc-Prp8 intein splicing
# Protocol: Split luciferase Prp8 intein splicing assay—The split RLuc-Prp8 fusion protein was carried out and monitored using a Veritas luminometer, as described previously.
# Split luciferase RLuc-Prp8 and NnLuc-Prp8 intein splicing assays—The split RLuc-Prp8 intein splicing assay was carried out and monitored using a Veritas luminometer, as described previously. […] Microbes. Infect. […] For NnLuc-Prp8 intein splicing assay, the NnLuc-prp8 is diluted in assay buffer (50 mM Tris, 0.1% BSA, 1 mM EDTA, pH 7.4) and 50 ul is added to each well in 96 well black plates. Test molecules or the solvent was added and incubated for 30 to 60 min. A splicing inducer TCEP (50 ul, 100 μM) is added and incubated for 24 h. Luciferase substrate (Furimazine, 25 ul 1:10,000 diluted) is added and luminescence is read using a luminescence reader. IC50 is calculated using Graphpad prism.
# [4] = system: C. neoformans H99 strain; assay: Fungal susceptibility test, broth microdilution MIC; type: cell-based, Cryptococcus neoformans
# How it was run: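 Compound MICs were determined by broth microdilution using a compound concentration series.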
# [5] = system: C. neoformans H99; assay: Checkerboard assay; type: cell-based, Cryptococcus neoformans; details: for MIC: Cryptococcus neoformans, H99, 48 h
# Protocol: Compounds were initially dissolved in DMSO and diluted in RPMI-1640-MOPS media four times the targeted final concentration and 50 μl was added per well. The second compound was similarly diluted and 50 μl was added per well, to a final volume of 100 μl/well. C. neoformans […] inoculum (100 μl) prepared from freshly grown cultures and diluted to an absorbance of 0.1 at 530 nm in water and further diluted (1:500) in RPMI-1640-MOPS was added to each well. To determine the fungicidal concentration of a compound, the wells with no visible growth were serially diluted, plated on SDA, and incubated at 30° C. for 48-72 h for the recovery of colony-forming units. Additionally, the cell density of treated and untreated wells was also estimated by reading absorbance at 630 nm using an EL808 reader (Bio-Tek). Percentage of inhibition compared to that of the no-drug-control well was calculated. […] Fractional inhibitory concentration (FIC) index value is calculated as the […]. The FIC index value is then used to categorize the interaction of the two compounds tested. […] Doern, C., “When Does 2 plus 2 Equal 5?A Review of Antimicrobial Synergy Testing,” Journal of Clinical Microbiology 52(12):4124-4128 (2014), which is hereby incorporated by reference in its entirety.
# [6] = system: C. neoformans; assay: Sensititre YeastOne Y09 AST drug combination assay; type: cell-based, Cryptococcus neoformans; details: 6G-318S at 0.16 ug/ml, C. neoformans H99
# Protocol: Sensititre YeastOne Y09 AST assay—Fungal susceptibility to a combination of compounds was carried out using the Sensititre YeastOne Y09 AST assay kit (Thermofisher), according to the manufacturer's manual. Briefly, fungal C. neoformans cells in exponential growth phase were diluted to a final OD530 of 0.1. Then 20 μl diluted cells were further diluted into 10 ml YPD as a stock. […] The stock C. neoformans (100 μl, ˜200 cells) were dispensed into the compound-ready 96-well plate. The fungal cells (treated or with DMF) were incubated at 30° C. for 48 h. The cell cultures were visualized by naked eye. The MIC break points were determined according to manufacturer's instructions.
# [7] = system: trypsin; assay: Trypsin protease inhibition (Abz FRET substrate); type: biochemical; details: compound at 400 μM
# Protocol: (§2) Trypsin and papain protease inhibition—An Abz FRET substrate (Abz-RRRRSAG-nTyr) developed previously (Li et al., “Existing Drugs as Broad-Spectrum and Potent Inhibitors for Zika Virus by Targeting NS2B-NS3 Interaction,” Cell Research 27(8):1046-1064 (2017), which is hereby incorporated by reference in its entirety) was used as the substrate for inhibition of trypsin and papain proteases. In black and clear-bottom 96-well plates, 1 μg trypsin (Sigma-Aldrich) was incubated with DMF or compounds at 400 μM at 25° C. for 30 min in a 70 μl reaction buffer containing 20 mM Tris, pH 8.0, 100 mM NaCl, 5% Glycerol, and 0.05% CHAPS. For papain, 1 μg Papain (Sigma-Aldrich) was incubated with compounds at 400 μM at 25° C. for 30 min in a 70 μl reaction buffer composed of 1.1 mM EDTA, 0.067 mM β-mercaptoethanol, 5.5 mM cysteine. […]
# [8] = in vitro; type: cell-based, human; details: human, CC50 A549
# How it was run: as §1
# [9] = system: Candida albicans; assay: Fungal susceptibility test, broth microdilution MIC; type: cell-based; details: microdilution assay
# Protocol: Fungal susceptibility test—The fungal susceptibility test was carried out with a compound concentration series as described. Li et al., “Cisplatin Protects Mice From Challenge of Cryptococcus neoformans by Targeting the Prp8 Intein,” Emerging Microbes & Infections 8(1):895-908 (2019), which is hereby incorporated by reference in its entirety. The broth microdilution method was used to determine the compound MIC values against C. neoformans. In brief, serial 2-fold dilutions of the 6G-318SS (20 to 0.03 μg/ml) were made in 100 μl RPMI-1640 medium with MOPS in 96-well U-bottom plates. The C. neoformans H99 strain (100 μl of 0.5×10^5/ml) in log phase was added to each well. […] The MIC break-point was defined as no visible fungal growth by naked eye or by determining the 90% growth inhibition using absorbance at 630 nm, compared with no inhibitor control in a 96-well plate.
# C. albicans, a fungus without the Prp8 intein, was also used as a control.
# [10] = molecular target: T2, papain (Carica papaya, UniProt P00784); assay: Papain protease inhibition (Abz FRET substrate); type: biochemical; details: compound at 400 μM
# T2 construct: purchased Sigma-Aldrich
# T2 sequence (P00784 134-345): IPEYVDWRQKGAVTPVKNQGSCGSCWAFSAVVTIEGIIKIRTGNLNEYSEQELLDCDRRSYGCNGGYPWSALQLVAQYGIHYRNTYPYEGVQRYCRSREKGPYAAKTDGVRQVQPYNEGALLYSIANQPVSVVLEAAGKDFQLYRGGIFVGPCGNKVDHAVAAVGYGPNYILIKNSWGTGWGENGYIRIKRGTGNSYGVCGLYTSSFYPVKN
# Protocol: as §2
# [11] = molecular target: T1, Prp8 intein; details: value from Li et al. 2019; read-out: IC50 determined using the RLuc-Prp8 assay; cited from earlier work
# T1 sequence (E6R027 entry or part of it): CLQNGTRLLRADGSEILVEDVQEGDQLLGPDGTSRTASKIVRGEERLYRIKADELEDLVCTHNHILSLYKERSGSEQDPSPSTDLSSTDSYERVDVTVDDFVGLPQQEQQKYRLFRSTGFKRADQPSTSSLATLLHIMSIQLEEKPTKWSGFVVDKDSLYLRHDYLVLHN
molecule,measurement,setting,value
"5-((4-Chlorophenyl)sulfonyl)-N-(6-fluoropyridin-3-yl)-1,2,3-thiadiazole-4-carboxamide [JMX0581]",IC50,[1],6.1 µM
same,CC50,[2],92.4 µM
same,IC50,[3],11.2 µM
"5-((4-Chlorophenyl)thio)-N-(6-fluoropyridin-3-yl)-1,2,3-thiadiazole-4-carboxamide [JMX0580]",IC50,[1],35.3 µM
same,MIC,"[4]; C. neoformans H99, microbroth dilution, read-out: MIC H99",>100 µM
same,CC50,[2],33.1 µM
same,IC50,[3],6.4 µM
"Nc1nc(=O)[nH]cc1F [5-FC, 5-fluorocytosine, reference compound]",MIC,[5],8.1 µg/mL
same,MIC-comb,"[5]; combination 6G-318S + 5-FC, well D6",2.025 µg/mL
same,reduction of MIC of known antifungal on addition of 6G-318S,[6],2 fold
"O=C(Nc1ccc(F)cc1F)c1nnsc1S(=O)(=O)c1ccc(Cl)cc1 [6G-319S, 5-((4-Chlorophenyl)sulfonyl)-N-(2,4-difluorophenyl)-1,2,3-thiadiazole-4-carboxamide]",inhibition of trypsin protease activity,[7],"neither 6G-318S, 6G-319S, nor cisplatin significantly inhibited"
same,inhibition at 20 µM,"[1]; compound at 20 μM, read-out: inhibition of the GFP-Prp8i signal / Prp8 intein splicing",> 50%
same,IC50,[1],9.7 µM
same,MIC,"[4]; Cryptococcus neoformans, H99STRAIN, H99 strain, 48 h, 30° C., read-out: MIC C. neoformans",1.3 µg/mL
same,CC50 at 48 h,[8],44.9 µg/mL and ~108 µM
same,MIC,[9],20.8 µg/mL
same,inhibition of papain protease activity,[10],"neither 6G-318S, 6G-319S, nor cisplatin significantly inhibited"
"C[C@@H]1[C@H](O)[C@@H](C)/C=C/C=C/C=C/C=C/C=C/C=C/C=C/[C@H](O[C@@H]2O[C@H](C)[C@@H](O)[C@H](N)[C@@H]2O)C[C@@H]2O[C@](O)(C[C@@H](O)C[C@@H](O)[C@H](O)CC[C@@H](O)C[C@@H](O)CC(=O)O[C@H]1C)C[C@H](O)[C@H]2C(=O)O [AmB, amphotericin B, reference compound]",MIC-alone,"[5]; C. neoformans H99, 48 h, 90% inhibition",0.578 µg/mL
same,MIC-comb,"[5]; combination 6G-318S + AmB, well F6",0.144 µg/mL
same,reduction of MIC of known antifungal on addition of 6G-318S,[6],more than 4 fold
"CCC(C)n1ncn(-c2ccc(N3CCN(c4ccc(OCC5COC(Cn6cncn6)(c6ccc(Cl)cc6Cl)O5)cc4)CC3)cc2)c1=O (stereo not shown) [IZ, itraconazole, reference compound]",MIC,[5],0.176 µg/mL
same,MIC-comb,"[5]; combination 6G-318S + IZ, well D6",0.088 µg/mL
same,reduction of MIC of known antifungal on addition of 6G-318S,[6],2 fold
"C[C@@H](c1ncncc1F)[C@](O)(Cn1cncn1)c1ccc(F)cc1F [Vor, Voriconazole, reference compound]",MIC,[5],0.044 µg/mL
same,MIC-comb,"[5]; combination 6G-318S + Vor, well G3",0.087 µg/mL
same,reduction of MIC of known antifungal on addition of 6G-318S,[6],2 fold
"N.N.[Cl][Pt][Cl] [cisplatin, reference compound]",inhibition of trypsin protease activity,[7],"neither 6G-318S, 6G-319S, nor cisplatin significantly inhibited"
same,fluorescence increase of the GFP-Prp8i fusion,"[1]; cisplatin 40 μM, GFP-Prp8i 200 nM",significantly reduced
same,IC50,[1],6.7 µM
same,IC50,[11],2.5 µM
same,inhibition of papain protease activity,[10],"neither 6G-318S, 6G-319S, nor cisplatin significantly inhibited"
